Experimental data as given in article PMC8402547, “In Vitro and In Vivo Analysis of Ochratoxin A-Derived Glucuronides and Mercapturic Acids as Biomarkers of Exposure” (Toxins, 2021).

How the values were obtained:
Type in all cases: in vivo, male F344/N rats
[1] = 14-day rat study: 24 h urinary excretion of OTA and OTA-glucuronides, LC–MS/MS with and without β-glucuronidase hydrolysis; details: for Urinary excretion / Urinary excretion, fraction of the administered dose: 2 mg OTA/kg bw oral, 5 d/week; for Urinary excretion, fraction of the administered dose: 24 h urine
Method: (§1) 14-day study: Male F344 rats (170–190 g) were purchased from Charles-River Laboratories, Sulzfeld, Germany. Animals had free access to water and standard diet (Altromin) and were kept under standard conditions (12 h day/night cycle, temperature 21–23 °C, humidity 45–55%). Rats were transferred to metabolic cages (Tecniplast Metabolic Cage—Rats Over 300 g; Tecniplast, Italy) for collection of urine 3 days prior to dosing. Animals were administered OTA dissolved in corn oil by oral gavage at 0, 0.25, 0.5, 1.0 and 2.0 mg/kg bw for 2 weeks (5 days per week). Urine was collected every 12 h on day 1 of treatment and every 24 h thereafter on ice, aliquoted and stored at −20 °C until further analysis.
(§2) Duplicate analysis of OTA in urine samples with and without enzymatic hydrolysis allowed for indirect measurement of glucuronides, whereby an increase in the concentration of OTA in the samples incubated with enzyme compared to those without enzymatic treatment reflected the hydrolyzed glucuronides. Aliquots of rat urine (125 µL) were mixed with 0.1 M sodium acetate (104 µL; pH = 5). For analysis of the concentration of OTA without enzymatic hydrolysis, an aliquot (30 µL) of this solution was removed and mixed with 7 µL acetonitrile. The remaining solution (199 µL) was incubated with β-glucuronidase (1.65 µL; <100,000 units/mL) at 37 °C for 1 h. Hydrolysis was terminated by addition of ice-cold acetonitrile (50 µL) and centrifugation (15 min., 4 °C, 20,000× g). To 98 µL supernatant, 2 µL isotopically labeled ^13C20-OTA in acetonitrile (14-day study: 5 µg/mL; 90-day study: 1 µg/mL) was added as an internal standard. For analysis, 10 µL of each sample were injected into the LC–MS system and analyzed using the method described below. A calibration curve was prepared from solutions of OTA and the isotopically labeled ^13C20-OTA internal standard in acetonitrile and subsequent dilution with urine of a control animal.
(§3) LC–MS/MS analyses were performed on an Agilent 1100 series LC coupled to an API 2000/Q-Trap mass spectrometer (Applied Biosystems/MDS Sciex, Concord, Canada). Samples were injected into the LC–MS/MS system through an Agilent 1100 series autosampler. Separations were carried out on a ReproSil-Pur C18 AQ column (2 mm × 150 mm, 5 µm; Dr. Maisch; Ammerbuch, Germany). Gradient elution of OTA-derived metabolites was carried out with water + 0.1% formic acid (solvent A) and acetonitrile (solvent B). Initially, solvent A was held isocratic for 5 min at 100%, followed by a linear gradient to 95% B in 5 min. These conditions were held for further 5 min. Within 1 min, the gradient decreased linearly to 0% B and remained at initial conditions until the end of analysis (30 min). A flow rate of 0.2 mL/min was used. For each run, 10 µL of the respective sample were injected by the autosampler.
(§4) The API 2000/Q-Trap mass spectrometer was operated with a Turbo Ion Spray source in negative ion mode with a voltage of −4000 V. Spectral data were recorded with N2 as the heater gas at 450 °C and as the collision gas (CAD = −2) in multiple reaction monitoring mode (MRM).

[2] = Direct LC–MS/MS analysis of OTA metabolites in urine of OTA-treated rats; details: OTA up to 2 mg/kg bw, negative ionization mode
Method: Archived urine samples from previous repeated dose oral toxicity studies on OTA in male F344/N rats were used. The studies were performed according to national animal welfare regulations after authorization by the local authorities (Regierung von Unterfranken, AZ 621-2531.01-9/98 and AZ 54-2531.01-59/05).
as §1
(§5) 90-day study: Male F344/N rats (6–7 weeks old) were purchased from Harlan-Winkelmann, Borchen, Germany. Animals were housed in groups of 5 in Macrolon type-4 cages and allowed free access to pelleted standard rat maintenance diet (SSNIFF, Soest, Germany) and tap water. After a week of acclimatization, rats (n = 5/dose) were exposed to OTA dissolved in corn oil by oral gavage at doses of 0, 21, 70 or 210 µg/kg bw for 2, 4 or 13 weeks (5 days per week). For urine collection, animals were transferred into metabolic cages (Tecniplast Metabolic Cage—Rats Over 300 g; Tecniplast, Italy) 48 h prior to necropsy and fasted for 20 h but allowed free access to tap water. Urine was collected for 24 h on ice, aliquoted and stored at −20 °C until further analysis.
Urine samples were diluted with acetonitrile (2:1), vortexed and cleared via centrifugation (4 °C, 15 min., 2000× g) to precipitate proteins. Of the resulting supernatant, 10 µL were injected into the LC–MS system and analyzed using the method described below.
as §3, §4
In addition to MRM, constant neutral loss of 129 amu in the negative ion mode based on the characteristic fragmentation pattern of mercapturic acids was used to screen for N-acetyl-cysteine conjugates of OTA. Furthermore, constant neutral loss of 176 amu in positive ion mode based on the fragmentation pattern of glucuronic acid conjugates was used to screen for OTA glucuronides.

[3] = 90-day rat study: 24 h urinary excretion of OTA and OTA-glucuronides, LC–MS/MS with and without β-glucuronidase hydrolysis; details: for Urinary excretion, fraction of the administered dose / Urinary excretion: 5 days/week; for Urinary excretion, fraction of the administered dose: 24 h urine
Method: as §5, §2, §3, §4

[4] = 4 weeks treatment, OTA 210 μg/kg bw per day oral, n = 1

CC1Cc2c(Cl)cc(C(=O)NC(Cc3ccccc3)C(=O)OC3OC(C(=O)O)C(O)C(O)C3O)c(O)c2C(=O)O1 (centres unmarked) [OTA-Glucuronide]
Urinary excretion ([1]; animal 2, day 3 of treatment): 0.6 nmol/24 h | Urinary excretion, fraction of the administered dose ([1]; animal 2, day 3 of treatment): 0.1% | Urinary excretion ([1]; animal 2, day 5 of treatment): 7.0 nmol/24 h | Urinary excretion, fraction of the administered dose ([1]; animal 2, day 5 of treatment): 0.8% | Urinary excretion ([1]; animal 2, day 7 of treatment): 0.7 nmol/24 h | Urinary excretion, fraction of the administered dose ([1]; animal 2, day 7 of treatment): 0.1% | Urinary excretion ([1]; animal 2, day 9 of treatment): 12.2 nmol/24 h | Urinary excretion, fraction of the administered dose ([1]; animal 2, day 9 of treatment): 1.4% | Urinary excretion ([1]; animal 2, day 11 of treatment): 3.1 nmol/24 h | Urinary excretion, fraction of the administered dose ([1]; animal 2, day 11 of treatment): 0.4% | Urinary excretion ([1]; animal 2, day 13 of treatment): 3.4 nmol/24 h | Urinary excretion, fraction of the administered dose ([1]; animal 2, day 13 of treatment): 0.4% | Urinary excretion ([1]; animal 3, day 3 of treatment): 1.5 nmol/24 h | Urinary excretion, fraction of the administered dose ([1]; animal 3, day 3 of treatment): 0.2% | Urinary excretion ([1]; animal 3, day 5 of treatment): 1.6 nmol/24 h | Urinary excretion, fraction of the administered dose ([1]; animal 3, day 5 of treatment): 0.3% | Urinary excretion ([1]; animal 3, day 7 of treatment): 22.0 nmol/24 h | Urinary excretion, fraction of the administered dose ([1]; animal 3, day 7 of treatment): 2.4% | Urinary excretion ([1]; animal 3, day 9 of treatment): 16.9 nmol/24 h | Urinary excretion, fraction of the administered dose ([1]; animal 3, day 9 of treatment): 1.9% | Urinary excretion ([1]; animal 3, day 11 of treatment): 22.5 nmol/24 h | Urinary excretion, fraction of the administered dose ([1]; animal 3, day 11 of treatment): 2.5% | Urinary excretion ([1]; animal 3, day 13 of treatment): 6.384 nmol/24 h | Urinary excretion, fraction of the administered dose ([1]; animal 3, day 13 of treatment): 0.7% | 24 h urinary excretion, % of the daily administered dose ([1]; range over the course of the study, OTA 2 mg/kg bw for 2 weeks (5 days/week)): 0.1–2.5% | Detection in urine of OTA-treated rats by direct LC–MS/MS (MRM) [2]: failed | Urinary excretion, fraction of the administered dose ([3]; 2 weeks treatment, OTA 21 μg/kg bw per day oral): 0.8% | Urinary excretion ([3]; 2 weeks treatment, OTA 21 μg/kg bw per day oral, mean ± SD): 0.10 ± 0.02 nmol/24 h | Urinary excretion, fraction of the administered dose ([3]; 2 weeks treatment, OTA 70 μg/kg bw per day oral): 0.6% | Urinary excretion ([3]; 2 weeks treatment, OTA 70 μg/kg bw per day oral, mean ± SD): 0.23 ± 0.08 nmol/24 h | Urinary excretion, fraction of the administered dose ([3]; 2 weeks treatment, OTA 210 μg/kg bw per day oral): 0.4% | Urinary excretion ([3]; 2 weeks treatment, OTA 210 μg/kg bw per day oral, mean ± SD): 0.48 ± 0.36 nmol/24 h | Urinary excretion, fraction of the administered dose ([3]; 4 weeks treatment, OTA 21 μg/kg bw per day oral): 0.7% | Urinary excretion ([3]; 4 weeks treatment, OTA 21 μg/kg bw per day oral, mean ± SD): 0.08 ± 0.09 nmol/24 h | Urinary excretion, fraction of the administered dose ([3]; 4 weeks treatment, OTA 70 μg/kg bw per day oral): 1.5% | Urinary excretion ([3]; 4 weeks treatment, OTA 70 μg/kg bw per day oral, mean ± SD): 0.61 ± 0.67 nmol/24 h | Urinary excretion, fraction of the administered dose [3, 4]: 0.2% | Urinary excretion [3, 4]: 0.21 nmol/24 h | Urinary excretion, fraction of the administered dose ([3]; 13 weeks treatment, OTA 21 μg/kg bw per day oral): 0.2% | Urinary excretion ([3]; 13 weeks treatment, OTA 21 μg/kg bw per day oral, mean ± SD): 0.03 ± 0.00 nmol/24 h | Urinary excretion, fraction of the administered dose ([3]; 13 weeks treatment, OTA 70 μg/kg bw per day oral): 1.7% | Urinary excretion ([3]; 13 weeks treatment, OTA 70 μg/kg bw per day oral, mean ± SD): 0.85 ± 0.74 nmol/24 h | Urinary excretion, fraction of the administered dose ([3]; 13 weeks treatment, OTA 210 μg/kg bw per day oral): 1.1% | Urinary excretion ([3]; 13 weeks treatment, OTA 210 μg/kg bw per day oral, mean ± SD): 1.72 ± 1.53 nmol/24 h | Relationship between OTA dose and urinary excretion (Pearson correlation) ([3]; OTA 0, 21, 70, 210 μg/kg bw, 2, 4 and 13 weeks): linear relationship | Excretion in male rat urine, % of the orally administered dose ([3]; male rats, indirect analysis, summary statement in discussion): less than 2% | Fraction of the administered dose excreted in urine ([3]; range over 90-day study, OTA 21, 70 and 210 µg/kg (5 days/week)): 0.2 to 1.7%
